Data set [1] deals with B cell subsets in bone marrow. As to the kind of experiment: Wild type mouse study: bone marrow B cell immunophenotyping by flow cytometry. To be noted: haloperidol 1 mg/kg IP, 21 days. In general terms: Flow cytometry measures light scatter and fluorescence of single cells or particles in a stream.
The conditions of data set [2]: in vivo; cited from earlier work.
In data set [3] the test system is B cell subsets and T cells in spleen. The data set can be described thus: Wild type mouse study: spleen immunophenotyping by flow cytometry. To be noted: haloperidol 1 mg/kg.
Data set [4] deals with total peripheral blood B-cells isolated from healthy donors. The data set is classed as cell-based, human. The following applies: clozapine 25-350 ng/ml, norclozapine 15-200 ng/ml, haloperidol 2-25 ng/ml; for Ability of differentiated ASCs to secrete antibody (total IgM/IgG ELISA): day 6 and day 9. As for the experimental part: The experiment was performed from four independent donors.

One may read the LD50 as the dose at which mortality reaches 50%. In the case of `O=C(CCCN1CCC(O)(c2ccc(Cl)cc2)CC1)c1ccc(F)cc1` [Haloperidol, haloperidol], in data set [1], the “Early developing B cell subsets in bone marrow (overall B, pre-pro B, pro-B)” value is given as “no significant effect” and the “Effect on long-lived plasma cells in the bone marrow” value is reported as “no effect”. Also, the LD50 in data set [2] is given as 30 mg/kg. In addition, in data set [3], the “Reduction of activated T cells (B220+TCR-b+) in spleen” value is “modestly apparent”. Moreover, in data set [3] (comparator), the “Impact on B cell subpopulations” value is on record as “not observed”. In data set [4], the “Functional or phenotypic maturation of activated B cells to an early PC state” value is listed as “no consistent inhibitory effect” and the “Ability of differentiated ASCs to secrete antibody (total IgM/IgG ELISA)” value is on record as “no consistent effect”.

For the compound `Clc1ccc2c(c1)N=C(N1CCNCC1)c1ccccc1N2` [norclozapine], in data set [4], the “Functional or phenotypic maturation of activated B cells to an early PC state” value is recorded as “no consistent inhibitory effect” and the “Ability of differentiated ASCs to secrete antibody (total IgM/IgG ELISA)” value is on record as “no consistent effect”.

Values taken from patent publication US20210236512A1 (ZARODEX THERAPEUTICS LIMITED, priority 2018, published 2021).
